Test results taken from publication PMC5241706, “Biochemical and Structural Characterization of Selective Allosteric Inhibitors of the Plasmodium falciparum Drug Target, Prolyl-tRNA-synthetase” (ACS Infectious Diseases, 2016).
Values joined by “and” are separate entries in the source; they are usually repeats but may differ in a detail not shown here. Identical values can stand only once.

Key:
[1] = biological target: T1, PfProRS (Plasmodium falciparum, UniProt Q8I5R7); assay: biochemical; format: biochemical; settings: read-out: Pf ProRS IC50
T1 construct: B2, AA7–746 (minus 6 amino acids, or 99% of the ORF); made in house; host or cells: E. coli BL21(DE3)R3 Rosetta Oxford

[2] = system: HsHEPG2; assay: mammalian cell line selectivity; format: cell-based; settings: Homo sapiens; data not shown
From the text: (§1) […]. In addition to its activity and selectivity, it has good physicochemical and DMPK properties. […].

[3] = intrinsic clearance in liver microsomes; format: in vitro ADME
Description: (§2) 485nm (Plouffe et al., 2008).
(§3) described (Vedadi et al., 2006).
(§4) Orange Dye (Life Technologies S-6650).
(§5) In vitro Cell Assay Data Analysis
(§6) (Patterson et al., 2013). […] An
(§7) Triplicate aliquots were transferred to a flat
(§8) Intrinsic Clearance (CLi) experiments
(§9) Test compound (0.5 µM) was
(§10) phosphate buffer, pH 7.4).
(§11) The rate of intrinsic clearance (CLi)
(§12) 52.5mg protein per g liver.
(§13) Ion homeostasis in the malaria parasite

[4] = biological target: T2, HsProRS (Homo sapiens, UniProt P07814); assay: luciferase ATP depletion assay, counter-screen; format: biochemical
T2 construct: made in house
T2 sequence (P07814 1007-1512 limits assumed): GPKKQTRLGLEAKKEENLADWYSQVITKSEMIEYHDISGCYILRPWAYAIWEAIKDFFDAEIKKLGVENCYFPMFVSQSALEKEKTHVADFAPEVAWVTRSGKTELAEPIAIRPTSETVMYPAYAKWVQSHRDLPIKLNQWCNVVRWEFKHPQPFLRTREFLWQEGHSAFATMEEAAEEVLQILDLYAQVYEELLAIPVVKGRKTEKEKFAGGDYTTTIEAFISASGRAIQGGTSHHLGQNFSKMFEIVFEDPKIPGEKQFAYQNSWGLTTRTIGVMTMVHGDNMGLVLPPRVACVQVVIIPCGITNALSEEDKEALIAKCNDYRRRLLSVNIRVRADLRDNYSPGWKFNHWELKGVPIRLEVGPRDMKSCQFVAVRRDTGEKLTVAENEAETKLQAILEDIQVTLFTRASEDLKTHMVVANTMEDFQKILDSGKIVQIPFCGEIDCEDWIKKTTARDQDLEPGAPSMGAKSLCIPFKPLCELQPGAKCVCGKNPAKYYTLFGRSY

[5] = kinetic aqueous solubility, laser nephelometry; format: physicochemical; settings: MilliQ water with 1.0% DMSO, kinetic from dmso stock
Description: as §2, §3, §4, §5, §6, §7, §8, §9, §10, §11, §12, §13

[6] = system: Plasmodium falciparum strain 3D7; assay: Plasmodium falciparum growth inhibition, SYBR green fluorescence; format: cell-based; settings: 3D7, growth inhibition, read-out: Pf (3D7) EC50
[7] = biological target: T1, PfProRS; assay: luciferase ATP depletion assay, HTS format; format: biochemical
[8] = experimental CHI-logD; format: physicochemical; settings: HPLC retention (chromatographic hydrophobicity index, CHI)
From the text: as §1

[9] = system: isolated 3D7 trophozoites (pHi); assay: pH assay, BCECF-loaded isolated trophozoites; settings: TCMDC-124506 5 μM; KAE609 50 nM
[10] = biological target: T1, PfProRS; assay: ATP consumption assay with proline or ATP varied (competition); format: biochemical
[11] = read-out: Percentage inhibition Pf ProRS

T1 sequence (Q8I5R7 7-746): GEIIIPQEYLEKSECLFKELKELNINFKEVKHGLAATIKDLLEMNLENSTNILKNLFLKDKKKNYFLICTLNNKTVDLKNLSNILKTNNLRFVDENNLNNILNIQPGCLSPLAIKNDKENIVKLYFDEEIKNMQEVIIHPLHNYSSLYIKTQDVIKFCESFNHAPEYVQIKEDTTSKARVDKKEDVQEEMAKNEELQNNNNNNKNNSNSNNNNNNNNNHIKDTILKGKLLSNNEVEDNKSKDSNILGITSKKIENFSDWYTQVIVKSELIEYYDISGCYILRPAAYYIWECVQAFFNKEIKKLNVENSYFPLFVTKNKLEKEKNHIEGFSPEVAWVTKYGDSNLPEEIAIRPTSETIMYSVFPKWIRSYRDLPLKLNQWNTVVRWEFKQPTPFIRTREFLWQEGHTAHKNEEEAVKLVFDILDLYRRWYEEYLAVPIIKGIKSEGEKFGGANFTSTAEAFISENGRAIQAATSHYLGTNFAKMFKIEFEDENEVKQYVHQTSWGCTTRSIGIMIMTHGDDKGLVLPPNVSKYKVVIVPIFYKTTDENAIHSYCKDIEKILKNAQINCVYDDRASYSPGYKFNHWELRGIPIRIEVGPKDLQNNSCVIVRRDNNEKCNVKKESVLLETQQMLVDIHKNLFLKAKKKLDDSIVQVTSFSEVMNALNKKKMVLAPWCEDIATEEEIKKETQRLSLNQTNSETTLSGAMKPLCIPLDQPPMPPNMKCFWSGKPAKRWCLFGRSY

## Cn1nc(C(F)(F)F)c(-c2ccc(F)cc2)c1NC(=O)Nc1ccc(F)cc1 [TCMDC-124506]
[1]
  IC50: 5 µM
[2]
  EC50: > 50 µM
[3]
  mouse microsomal clearance (Cli): 1.6 mL/min/g
[4]
  IC50: > 700 µM
[4]; at 2.5 μM, read-out: Percentage inhibition Hs ProRS
  inhibition at 2.5 µM: 0.3%
[4]; at 4.9 μM, read-out: Percentage inhibition Hs ProRS
  inhibition at 4.9 µM: 0.28%
[4]; at 9.8 μM, read-out: Percentage inhibition Hs ProRS
  inhibition at 9.8 µM: 0.01%
[4]; at 19.5 μM, read-out: Percentage inhibition Hs ProRS
  inhibition at 19.5 µM: -0.08%
[4]; at 39 μM, read-out: Percentage inhibition Hs ProRS
  inhibition at 39 µM: 0.26%
[4]; at 78 μM, read-out: Percentage inhibition Hs ProRS
  inhibition at 78 µM: 0.84%
[4]; at 156 μM, read-out: Percentage inhibition Hs ProRS
  inhibition at 156 µM: 0.82%
[4]; at 313 μM, read-out: Percentage inhibition Hs ProRS
  inhibition at 313 µM: 0.26%
[4]; at 625 μM, read-out: Percentage inhibition Hs ProRS
  inhibition at 625 µM: 0.12%
[4]; at 1250 μM, read-out: Percentage inhibition Hs ProRS
  inhibition at 1250 µM: 0.04%
[4]; up to the limit of solubility (>1 mM)
  inhibitory activity for HsProRS: < 40%
[5]
  solubility kinetic: > 250 µM
[6]
  EC50: 0.6 µM
[7]; 75 nM ProRS, 60 μM proline, 6 μM ATP, 400 μg/mL yeast tRNA, 2 h 37 °C, read-out: PfProRS IC50
  IC50: 74 µM and 73 µM
[7]; [11]
  inhibition at 2.5 µM: -0.36%
  inhibition at 4.9 µM: -2.4%
  inhibition at 9.8 µM: 3.73%
  inhibition at 19.5 µM: 10.8%
  inhibition at 39 µM: 30.9%
  inhibition at 78 µM: 55.8%
  inhibition at 156 µM: 79.5%
  inhibition at 313 µM: 80.4%
  inhibition at 625 µM: 96.2%
  inhibition at 1250 µM: 97%
[8]
  chromatographic logD: 2.9
[9]
  effect on acidification after concanamycin A (100 nM): a reduction in the degree of acidification
  effect on parasite cytosolic pH (pHi): caused an increase in pHi
[10]
  mode of inhibition: competitive allosteric inhibitor
[10]; IC50 of TCMDC-124506 as a function of proline, Pro=30 M
  IC50: 88 µM
[10]; IC50 of TCMDC-124506 as a function of proline, Pro=60
  IC50: 110 µM
[10]; IC50 of TCMDC-124506 as a function of proline, Pro=120
  IC50: 128 µM
[10]; IC50 of TCMDC-124506 as a function of proline, Pro=240
  IC50: 151 µM
[10]; Ki (Cheng-Prusoff, competition with ATP), intercept of IC50 vs [ATP]
  Ki: 51 ± 1.6 µM
[10]; Ki (Cheng-Prusoff, competition with proline), intercept of IC50 vs [Proline]
  Ki: 80 ± 4.9 µM
[10]; TCMDC-124506 IC50 as a function of ATP, ATP=3 M
  IC50: 74.4 µM
[10]; TCMDC-124506 IC50 as a function of ATP, ATP=6
  IC50: 103 µM
[10]; TCMDC-124506 IC50 as a function of ATP, ATP=12
  IC50: 145 µM
